Columns and labels:
in vitro = conditions: human
Description: (§1) Purified populations of human blood monocytes were prepared as previously described by differential density centrifugation on Ficoll and Percoll gradients (see Allavena, P., Piemonti, L., Longoni, D., Bernasconi, S., Stoppacciaro, A., Ruco, L., and Mantovani, A. IL-10 prevents the differentiation of monocytes to dendritic cells but promotes their maturation to macrophages. Eur J Immunol, 28: 359-369, 1998). […] Human thymocytes were isolated from resected thymus from pediatric patients undergoing surgery. Thymocytes were obtained by teasing and isolated on Percoll gradient.
(§2) Cells were cultured at 10^6 cells/ml in complete medium RPMI (Biochrom, Berlin, FRG)+10% FCS (Hyclone, Logan, Utah). In vitro differentiated macrophages were obtained by culture of monocytes Monocyte-Colony Stimulating Factor (M-CSF) Peprotech (20 ng/ml), for 5 days. In some experiments, macrophages were treated with LPS (100 ng/ml) Sigma Aldrich, IFN gamma (500 IU/ml) or IL-4 (20 ng/ml) (Schering Plough) for 24 h.
(§3) Cell viability was analyzed by DNA content in Flow Cytometry
(§4) Cells exposed to treatments were fixed with ethanol 70%, washed in PBS and stained with propidium iodide (PI) solution containing 10 ug/ml PI in PBS and 25 μl RNAse 10,000 units, overnight in the dark. PI incorporation was evaluated on at least 20,000 cells/sample using a FACS Calibur instrument (Becton Dickinson, Sunnyvale, Calif., USA), with a bandpass filter at 620 nm. Apoptosis was detected by staining with AnnexinV and PI. FACS analysis was performed using a bandpass filter 530 and 620 nm for green (AnnexinV) and red (PI) fluorescence respectively, in combination with a […] dichroic mirror.
(§5) Purified preparations of blood monocytes, lymphocytes and thymocytes were cultured with different concentrations of ecteinascidin 743 for 48 h. Cell viability was assessed by DNA analysis and propidium iodide (PI) staining in Flow cytometry.
(§6) A kinetics analysis of the cytotoxic effect of ecteinascidin 743 was performed in the presence of M-CSF. Cells were treated with M-CSF (20 ng/ml) and different concentrations of ecteinascidin 743. Samples were collected at the indicated times and tested for DNA analysis.
(§7) Viability was assessed by PI staining and analyzed by Flow Cytometry.

blood monocytes = experiment: in vitro
Description: as §1, §2, §3, §4, §5, §6, §7

T lymphocytes = experiment: Cell viability of purified T lymphocytes (PI staining, flow cytometry); assay type: cell-based, human; conditions: 48 h
Description: as §1, §3, §4
Purified preparations of blood monocytes, lymphocytes and thymocytes were cultured with different concentrations of ecteinascidin 743 for 48 h. […]

[1] = tested on: macrophage differentiation; experiment: In vivo treatment of tumour patients, in vitro differentiation of their monocytes to macrophages; design: species or system human; % inhibition of macrophage differentiation referred to cells before infusion: concentration or dose not given beside the values; conditions: for Absolute numbers of marker positive macrophages/10,000 cells, Exposure to ecteinascidin 743: end of 3-h infusion, 5 days M-CSF
Description: Expression of cell membrane markers was performed by immunofluoresce and analyzed by Flow Cytometry. Cells were incubated with anti-CD14, anti-CD16, anti-CD68, anti-CD206 (mannose receptor) and then with FITC-goat anti-mouse Ig as described. At least 10,000 cells were analyzed.
Patients with sarcoma or ovarian cancer undergoing Phase II trial with ecteinascidin 743, were admitted to the European Oncology institute, Milano, Italy. Patients received ecteinascidin 743 ([…]) in a 3-h infusion. Blood samples (40 ml) were collected immediately before the treatment and at the end of the infusion (+3 h). Blood samples were immediately processed and Percoll purified monocytes (usually 10^6 cells) were cultured with M-CSF (20 ng/ml) for 5 days. Differentiated cells were harvested, counted and analyzed for phenotype expression, as described above. Results are presented as absolute numbers of marker-positive cells/10,000 cells.
To validate the above in vitro findings we tested whether the in vivo administration of ecteinascidin 743 in tumour patients could have measurable effects on monocyte viability and capacity to macrophage differentiation in vitro. A phase II trial with ecteinascidin 743 is currently underway in advanced ovarian adenocarcinoma patients who had failed two different cycles of conventional cis-platin and taxol-based chemotherapy. Tumour patients selected for this study were treated with 1300 ug/ml/m2 of ecteinascidin 743. Blood samples from patients were drawn just before drug administration and at the end of a 3-hour infusion. Purified monocytes were immediately isolated and cultured with M-CSF (20 ng/ml) for 5 days to induce macrophage differentiation and then analalyzed for phenotype expression. […] The data shown are the absolute numbers of marker positive cells for a total of 10,000 input cells.

## COc1cc2c(cc1O)CCN[C@]21CS[C@@H]2c3c(OC(C)=O)c(C)c4c(c3[C@H](COC1=O)N1[C@@H]2[C@H]2c3c(cc(C)c(OC)c3O)C[C@@H]([C@@H]1O)N2C)OCO4 [ecteinascidin 743]
In vitro
  viability at 5 days, 0.0005 µM: 92%
  viability at 5 days, 0.001 µM: 70%
Blood monocytes; 5 nM, 48 h incubation, with M-CSF
  monocyte death: 30%
Blood monocytes; 5 nM, 48 h incubation, without M-CSF
  monocyte death: 55%
Blood monocytes; 10 nM, 24 h treatment, with M-CSF
  monocyte death: 35%
Blood monocytes; 10 nM, 24 h treatment, without M-CSF
  monocyte death: 65%
Blood monocytes; Homo sapiens, Monocyte, 48 h, read-out: lethal dose 50% (IC50), monocyte mortality
  IC50: 2.5 to 5 nM
Blood monocytes; Homo sapiens, Monocyte, 120 h, read-out: mortality of monocytes
  mortality at 0.0025 µM: 40 to 50%
Blood monocytes; higher concentrations, after 24 h incubation, M-CSF 20 ng/ml
  toxicity on monocytes (kinetics): significant toxicity
T lymphocytes; 5 nM
  viability of T lymphocytes: all alive
T lymphocytes; Homo sapiens, T-lymphocyte
  IC50: 20 nM
[1]; of 12 evaluable patients, blood at end of 3-hour infusion
  subjects whose monocytes showed decreased macrophage differentiation after treatment: 6
[1]; patient UPN 1, CD16
  % inhibition of macrophage differentiation referred to cells before infusion: 60%
  Absolute numbers of marker positive macrophages/10,000 cells, Exposure to ecteinascidin 743: 1248 /10,000 cells
[1]; patient UPN 1, CD68
  % inhibition of macrophage differentiation referred to cells before infusion: 45%
  Absolute numbers of marker positive macrophages/10,000 cells, Exposure to ecteinascidin 743: 1473 /10,000 cells
[1]; patient UPN 1, CD206
  % inhibition of macrophage differentiation referred to cells before infusion: 88%
  Absolute numbers of marker positive macrophages/10,000 cells, Exposure to ecteinascidin 743: 550 /10,000 cells
[1]; patient UPN 2, CD16
  % inhibition of macrophage differentiation referred to cells before infusion: 60%
  Absolute numbers of marker positive macrophages/10,000 cells, Exposure to ecteinascidin 743: 1105 /10,000 cells
[1]; patient UPN 2, CD68
  % inhibition of macrophage differentiation referred to cells before infusion: 70%
  Absolute numbers of marker positive macrophages/10,000 cells, Exposure to ecteinascidin 743: 1060 /10,000 cells
[1]; patient UPN 2, CD206
  % inhibition of macrophage differentiation referred to cells before infusion: 79%
  Absolute numbers of marker positive macrophages/10,000 cells, Exposure to ecteinascidin 743: 595 /10,000 cells
[1]; patient UPN 3, CD68
  % inhibition of macrophage differentiation referred to cells before infusion: 80%
  Absolute numbers of marker positive macrophages/10,000 cells, Exposure to ecteinascidin 743: 632 /10,000 cells
[1]; patient UPN 3, CD206
  % inhibition of macrophage differentiation referred to cells before infusion: 87%
  Absolute numbers of marker positive macrophages/10,000 cells, Exposure to ecteinascidin 743: 474 /10,000 cells
[1]; patient UPN 4, CD16
  % inhibition of macrophage differentiation referred to cells before infusion: 41%
  Absolute numbers of marker positive macrophages/10,000 cells, Exposure to ecteinascidin 743: 3050 /10,000 cells
[1]; patient UPN 4, CD68
  % inhibition of macrophage differentiation referred to cells before infusion: 55%
  Absolute numbers of marker positive macrophages/10,000 cells, Exposure to ecteinascidin 743: 2460 /10,000 cells
[1]; patient UPN 5, CD16
  % inhibition of macrophage differentiation referred to cells before infusion: 63%
  Absolute numbers of marker positive macrophages/10,000 cells, Exposure to ecteinascidin 743: 594 /10,000 cells
[1]; patient UPN 5, CD68
  % inhibition of macrophage differentiation referred to cells before infusion: 50%
  Absolute numbers of marker positive macrophages/10,000 cells, Exposure to ecteinascidin 743: 815 /10,000 cells
[1]; patient UPN 6, CD16
  % inhibition of macrophage differentiation referred to cells before infusion: 83%
  Absolute numbers of marker positive macrophages/10,000 cells, Exposure to ecteinascidin 743: 480 /10,000 cells
[1]; patient UPN 6, CD68
  % inhibition of macrophage differentiation referred to cells before infusion: 79%
  Absolute numbers of marker positive macrophages/10,000 cells, Exposure to ecteinascidin 743: 505 /10,000 cells
